Measurements published in patent US20090099029A1, “Methods and substrates for conducting assays” (Invitrogen Corporation, priority 2005, published 2009).

Columns and labels:
Assay in all cases: Further analysis of a plurality of inhibitors and a plurality of kinases (Table 5 inhibition results)
Type in all cases: biochemical
Set-up in all cases: scale not given here
kinases of Table 5 [1] = target: T1, kinases of Table 5 (Homo sapiens, UniProt P29323); details: kinase EPHB2 (Part I, plate E5, Domain 1)
T1 sequence (P29323 19-1055): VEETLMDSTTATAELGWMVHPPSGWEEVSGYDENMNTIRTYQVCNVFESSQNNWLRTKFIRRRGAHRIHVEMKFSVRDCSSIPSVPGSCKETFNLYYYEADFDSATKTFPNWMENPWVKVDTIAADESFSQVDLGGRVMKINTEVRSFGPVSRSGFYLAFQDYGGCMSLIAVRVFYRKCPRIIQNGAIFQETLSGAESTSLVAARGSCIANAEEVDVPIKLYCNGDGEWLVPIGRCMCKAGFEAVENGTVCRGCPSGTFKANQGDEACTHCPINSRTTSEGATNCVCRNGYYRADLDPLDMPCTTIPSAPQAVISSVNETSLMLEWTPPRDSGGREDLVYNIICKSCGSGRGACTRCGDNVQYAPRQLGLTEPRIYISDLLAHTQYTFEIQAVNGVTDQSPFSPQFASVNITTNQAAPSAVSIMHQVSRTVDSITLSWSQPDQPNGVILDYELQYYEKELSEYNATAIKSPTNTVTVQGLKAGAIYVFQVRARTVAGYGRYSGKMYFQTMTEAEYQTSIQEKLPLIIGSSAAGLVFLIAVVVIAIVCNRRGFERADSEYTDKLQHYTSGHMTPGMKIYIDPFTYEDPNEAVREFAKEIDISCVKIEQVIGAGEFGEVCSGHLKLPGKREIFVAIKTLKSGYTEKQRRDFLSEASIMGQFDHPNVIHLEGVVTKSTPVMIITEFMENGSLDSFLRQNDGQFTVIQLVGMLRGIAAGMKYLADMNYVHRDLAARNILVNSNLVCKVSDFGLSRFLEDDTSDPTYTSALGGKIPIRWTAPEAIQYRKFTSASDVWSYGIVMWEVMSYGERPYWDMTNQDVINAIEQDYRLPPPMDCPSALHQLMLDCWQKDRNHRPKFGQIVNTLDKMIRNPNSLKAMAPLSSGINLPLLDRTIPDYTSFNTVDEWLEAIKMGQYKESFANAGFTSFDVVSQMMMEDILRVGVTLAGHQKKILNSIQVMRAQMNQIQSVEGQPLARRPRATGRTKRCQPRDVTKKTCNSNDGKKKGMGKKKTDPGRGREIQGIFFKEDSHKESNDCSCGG
Excerpt: (§1) The wash solution is then discarded.

kinases of Table 5 [2] = target: T2, kinases of Table 5 (Homo sapiens, UniProt Q92630); details: for Inhibition level: kinase DYRK2; for Inhibition Results (Level): kinase DYRK2 (Part II, plate D11, Domain 1)
T2 sequence (Q92630 1-601): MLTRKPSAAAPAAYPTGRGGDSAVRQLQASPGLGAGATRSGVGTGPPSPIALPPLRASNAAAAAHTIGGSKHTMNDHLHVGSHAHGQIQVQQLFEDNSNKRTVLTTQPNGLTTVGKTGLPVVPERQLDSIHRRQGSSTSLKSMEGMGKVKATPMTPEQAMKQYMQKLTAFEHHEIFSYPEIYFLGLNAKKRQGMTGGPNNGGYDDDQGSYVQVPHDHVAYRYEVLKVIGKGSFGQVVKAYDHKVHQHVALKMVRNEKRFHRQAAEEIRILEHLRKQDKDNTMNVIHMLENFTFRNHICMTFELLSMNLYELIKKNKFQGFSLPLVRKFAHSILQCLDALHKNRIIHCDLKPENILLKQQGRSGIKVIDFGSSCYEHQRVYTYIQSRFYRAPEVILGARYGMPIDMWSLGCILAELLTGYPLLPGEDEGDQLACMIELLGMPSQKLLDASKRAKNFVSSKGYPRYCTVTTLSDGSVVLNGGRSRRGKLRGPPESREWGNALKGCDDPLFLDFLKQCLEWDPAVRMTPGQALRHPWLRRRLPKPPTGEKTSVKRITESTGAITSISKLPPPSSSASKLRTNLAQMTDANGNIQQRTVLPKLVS
Excerpt: as §1

kinases of Table 5 [3] = target: kinases of Table 5 (Homo sapiens, UniProt P07949); details: for Inhibition level: kinase RET; for Inhibition Results (Level): kinase RET (Part II, plate B7, Domain 1)
Sequence of kinases of Table 5 (Homo sapiens, UniProt P07949) (P07949 29-1114): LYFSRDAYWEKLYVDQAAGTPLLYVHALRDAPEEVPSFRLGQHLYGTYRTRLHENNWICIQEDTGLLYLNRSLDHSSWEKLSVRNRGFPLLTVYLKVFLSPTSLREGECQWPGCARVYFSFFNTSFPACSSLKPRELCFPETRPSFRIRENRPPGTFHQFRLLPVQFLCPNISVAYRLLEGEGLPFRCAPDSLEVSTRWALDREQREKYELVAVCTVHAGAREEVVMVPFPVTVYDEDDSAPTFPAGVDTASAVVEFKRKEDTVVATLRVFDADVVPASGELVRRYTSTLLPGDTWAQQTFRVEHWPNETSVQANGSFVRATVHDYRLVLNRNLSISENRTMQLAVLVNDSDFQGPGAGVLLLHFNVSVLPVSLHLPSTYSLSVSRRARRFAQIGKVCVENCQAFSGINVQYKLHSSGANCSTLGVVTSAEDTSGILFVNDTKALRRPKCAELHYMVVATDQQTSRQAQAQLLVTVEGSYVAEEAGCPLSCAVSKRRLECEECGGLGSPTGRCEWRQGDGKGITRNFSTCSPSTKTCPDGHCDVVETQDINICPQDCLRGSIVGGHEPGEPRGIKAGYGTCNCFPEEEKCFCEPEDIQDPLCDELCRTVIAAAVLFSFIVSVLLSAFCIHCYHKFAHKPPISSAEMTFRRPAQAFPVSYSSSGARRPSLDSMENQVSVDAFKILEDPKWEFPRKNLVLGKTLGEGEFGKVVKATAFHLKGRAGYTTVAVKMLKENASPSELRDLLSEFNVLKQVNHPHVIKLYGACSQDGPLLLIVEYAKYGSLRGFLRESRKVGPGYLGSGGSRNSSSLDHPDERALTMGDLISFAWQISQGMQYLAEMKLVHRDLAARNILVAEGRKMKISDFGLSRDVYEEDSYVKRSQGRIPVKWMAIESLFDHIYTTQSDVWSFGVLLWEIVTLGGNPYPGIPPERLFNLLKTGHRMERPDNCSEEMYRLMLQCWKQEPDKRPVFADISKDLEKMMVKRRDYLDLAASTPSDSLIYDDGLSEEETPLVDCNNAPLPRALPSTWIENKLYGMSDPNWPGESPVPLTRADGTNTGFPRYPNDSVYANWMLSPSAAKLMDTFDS
Excerpt: as §1

kinases of Table 5 [4] = target: T3, kinases of Table 5 (Homo sapiens, UniProt Q13043); details: for Inhibition level: kinase STK4; for Inhibition Results (Level): kinase STK4 (Part II, plate D6, Domain 1)
T3 sequence (Q13043 1-487): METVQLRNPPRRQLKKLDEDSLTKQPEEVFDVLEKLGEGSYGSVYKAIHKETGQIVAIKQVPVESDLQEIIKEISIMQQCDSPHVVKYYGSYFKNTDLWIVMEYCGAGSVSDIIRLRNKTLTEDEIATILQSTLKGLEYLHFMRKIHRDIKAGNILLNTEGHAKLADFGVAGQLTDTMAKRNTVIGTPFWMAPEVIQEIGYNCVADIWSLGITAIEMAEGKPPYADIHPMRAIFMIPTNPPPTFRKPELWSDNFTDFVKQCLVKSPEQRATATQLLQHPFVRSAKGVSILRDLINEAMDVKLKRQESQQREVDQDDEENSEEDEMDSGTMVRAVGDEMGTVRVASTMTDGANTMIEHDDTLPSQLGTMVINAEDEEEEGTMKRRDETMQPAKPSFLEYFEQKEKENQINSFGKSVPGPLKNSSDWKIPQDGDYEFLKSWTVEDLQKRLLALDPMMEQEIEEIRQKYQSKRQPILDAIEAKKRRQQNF
Excerpt: as §1

kinases of Table 5 [5] = target: T4, kinases of Table 5 (Homo sapiens, UniProt Q9UQB9); details: kinase STK13 (Part I, plate G11, Domain 1); inhibitor 100 uM
T4 sequence (Q9UQB9 1-309): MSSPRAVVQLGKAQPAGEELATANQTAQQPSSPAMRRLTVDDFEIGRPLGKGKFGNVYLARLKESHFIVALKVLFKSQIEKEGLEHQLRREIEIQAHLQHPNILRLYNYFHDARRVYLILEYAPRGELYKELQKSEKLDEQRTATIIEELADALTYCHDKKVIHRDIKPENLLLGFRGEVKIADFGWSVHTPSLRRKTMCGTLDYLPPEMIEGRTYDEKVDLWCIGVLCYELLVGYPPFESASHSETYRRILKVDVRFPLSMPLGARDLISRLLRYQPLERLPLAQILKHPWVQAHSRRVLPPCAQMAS
Excerpt: as §1

SMILES | Inhibition Results (Level) (kinases of Table 5 [1]; inhibitor 100 uM) | Inhibition level (kinases of Table 5 [2]; inhibitor 100 uM) | Inhibition level (kinases of Table 5 [3]; inhibitor 100 uM) | Inhibition level (kinases of Table 5 [4]; inhibitor 100 uM) | Inhibition Results (Level) (kinases of Table 5 [5]) | Inhibition Results (Level) (kinases of Table 5 [1]; inhibitor <3.7 mM) | Inhibition level (kinases of Table 5 [2]; concentration not given) | Inhibition level (kinases of Table 5 [3]; concentration not given) | Inhibition level (kinases of Table 5 [4]; concentration not given) | Inhibition Results (Level) (kinases of Table 5 [2]; inhibitor 100 uM) | Inhibition Results (Level) (kinases of Table 5 [3]; inhibitor 100 uM) | Inhibition Results (Level) (kinases of Table 5 [4]; inhibitor 100 uM) | Inhibition Results (Level) (kinases of Table 5 [1]; inhibitor 90 uM)
N#C/C(=C/c1ccc(O)c(O)c1)C(=O)NCc1ccccc1 [AG 490] | 2 | 2 | 2 | 0 | 2 | – | – | – | – | – | – | – | –
COc1cc2ncnc(Nc3cccc(Cl)c3)c2cc1OC [AG 1478] | 2 | 2 | 2 | 1 | 1 | – | – | – | – | – | – | – | –
O=c1c(-c2ccc(O)cc2)coc2cc(O)cc(O)c12 [Genistein] | 2 | 2 | 2 | 0 | 2 | 0 | 1 | 0 | 0 | – | – | – | –
O=S(=O)(NCCNC/C=C/c1ccc(Br)cc1)c1cccc2cnccc12 [H-89] | 2 | – | – | – | 1 | – | – | – | – | 2 | 0 | 2 | –
CC(C)(C)n1nc(-c2ccc(Cl)cc2)c2c(N)ncnc21 [PP2] | 2 | 2 | 2 | 2 | 2 | – | – | – | – | – | – | – | –
O=c1c(O)c(-c2ccc(O)c(O)c2)oc2cc(O)cc(O)c12 [Quercetin] | 2 | – | – | – | 2 | – | – | – | – | 2 | – | 0 | –
Cn1cc(C2=C(c3cn(CCCSC(=N)N)c4ccccc34)C(=O)NC2=O)c2ccccc21 [Ro-31-8220] | 2 | 2 | 0 | 2 | 2 | – | 0 | 2 | 0 | – | – | – | 0
CC(=O)c1c(O)c(C)c(O)c(Cc2c(O)c3c(c(C(=O)/C=C/c4ccccc4)c2O)OC(C)(C)C=C3)c1O [Rottlerin (Mallotoxin)] | 2 | – | – | – | 1 | – | – | – | – | 2 | 0 | 0 | –
CN[C@@H]1C[C@H]2O[C@@](C)([C@@H]1OC)n1c3ccccc3c3c4c(c5c6ccccc6n2c5c31)C(=O)NC4 [Staurosporine] | – | – | – | – | – | – | – | – | 0 | – | – | – | –
